This passage reports MBEC and MBC results from ChEMBL document CHEMBL4052697, “Chimeric analogs of human β-defensin 1 and θ-defensin disrupt pre-established bacterial biofilms” (2017).

Holding throughout (format): functional
Assay [1] deals with Staphylococcus aureus. The assay can be described thus: Antibiofilm activity against pre-established 36 hrs old bacterial biofilms of Staphylococcus aureus NCTC 8530 incubated for 4 hrs by XTT assay. (In general: Tetrazolium assays rely on reduction of a dye to a coloured formazan, in cell work by metabolically active cells.)
The test system of assay [2] is Escherichia coli. The assay can be described thus: Bactericidal activity against Escherichia coli MG1655 planktonic forms.
The subject of assay [3] is Staphylococcus aureus. The assay can be described thus: Bactericidal activity against Staphylococcus aureus NCTC 8530 planktonic forms.
Assay [4] has as its system Escherichia coli. The assay can be described thus: Antibiofilm activity against pre-established 36 hrs old bacterial biofilms of Escherichia coli MG1655 incubated for 4 hrs by XTT assay.

Values after ≈ are worked out from the molar mass of the structure shown. Active and inactive are the calls of the source. No cut-off for these calls is given here. Non-standard residues stand in square brackets, D forms with d. Residues, ends and D or L forms follow the SMILES beside them. NMeA = CN[C@@H](C)C(=O)O

One may read the MBC as the lowest tested concentration that kills the bacteria rather than only halting them. Low readings indicate more potent killing, high ones less potent killing. On to `CC[C@H](C)[C@H](NC(=O)[C@H](CCCNC(=N)N)NC(=O)[C@H](CC(=O)O)NC(=O)[C@H](CC(C)C)NC(=O)[C@@H](N)CCC(=O)O)C(=O)NCC(=O)N[C@@H](Cc1ccc(O)cc1)C(=O)NCC(=O)N[C@H](C(=O)N[C@@H](C)C(=O)N[C@@H](CCCNC(=N)N)C(=O)N[C@@H](CCCNC(=N)N)C(=O)N[C@H](CCCCN)C(=O)N[C@H](CCCCN)C(=O)N[C@@H](CCCNC(=N)N)C(=O)O)[C@@H](C)O`, for which the MBEC entry in the assay on Staphylococcus aureus [1] and with Escherichia coli [4] was “inactive” each time. The MBC in the assay on Escherichia coli [2] was determined as 20 µM (≈ 36.4 µg/mL); with Staphylococcus aureus [3] it was 60 µM (≈ 109 µg/mL).

In the case of `CCCCCCCCCCCCCC(=O)N[C@@H](C)C(=O)N[C@H](C(=O)N[C@@H](Cc1ccc(O)cc1)C(=O)N[C@H](CCCNC(=N)N)C(=O)N[C@H](C(=O)NCC(=O)N[C@H](CCCNC(=N)N)C(=O)N[C@@H](C)C(=O)N[C@H](C(=O)N[C@H](CCCNC(=N)N)C(=O)N[C@@H](CCC(=O)O)C(=O)N[C@@H](CO)C(=O)N[C@@H](CC(C)C)C(=O)N[C@@H](CO)C(=O)NCC(=O)N[C@H](C(=O)N[C@@H](CCC(=O)O)C(=O)N[C@H](C(=O)N[C@@H](CO)C(=O)NCC(=O)N[C@H](CCCNC(=N)N)C(=O)N[C@@H](CC(C)C)C(=O)N[C@@H](Cc1ccc(O)cc1)C(=O)N[C@H](CCCNC(=N)N)C(=O)N[C@@H](CC(C)C)C(=O)N[C@@H](CCCNC(=N)N)C(=O)O)[C@@H](C)CC)C(C)C)[C@@H](C)O)[C@@H](C)O)[C@@H](C)O`, the MBEC result with Staphylococcus aureus [1] and with Escherichia coli [4] was “inactive” each time. The MBC against Escherichia coli [2] was 5 µM (≈ 15.9 µg/mL); in the assay on Staphylococcus aureus [3], 7.5 µM (≈ 23.8 µg/mL).

Take `CC[C@H](C)[C@H](NC(=O)CNC(=O)[C@H](CCCNC(=N)N)NC(=O)[C@@H](NC(=O)[C@@H](NC(=O)[C@@H](NC(=O)CNC(=O)[C@H](Cc1ccc(O)cc1)NC(=O)[C@H](CCCNC(=N)N)NC(=O)[C@H](Cc1ccc(O)cc1)NC(=O)[C@H](CCC(=O)O)NC(=O)[C@@H](NC(=O)[C@H](CO)NC(=O)[C@H](Cc1ccc(O)cc1)NC(=O)[C@H](CO)NC(=O)[C@H](CCCNC(=N)N)NC(=O)[C@H](CCCNC(=N)N)NC(=O)[C@H](Cc1cnc[nH]1)NC(=O)[C@@H](NC(=O)[C@H](Cc1ccccc1)NC(=O)[C@H](C)NC)[C@@H](C)O)[C@@H](C)O)[C@@H](C)O)[C@@H](C)O)C(C)C)C(=O)N[C@@H](CCCNC(=N)N)C(=O)N[C@@H](Cc1cnc[nH]1)C(=O)N[C@@H](CCCNC(=N)N)C(=O)N[C@@H](Cc1ccccc1)C(=O)N[C@@H](CC(C)C)C(=O)O` (H-[NMeA]FTHRRSYSTEYRYGTTVRGIRHRFL-OH): the MBEC result in the assay on Staphylococcus aureus [1] and in the assay on Escherichia coli [4] was “inactive” throughout. For the same molecule, the MBC in the assay on Escherichia coli [2] and against Staphylococcus aureus [3] was 10 µM (≈ 32.5 µg/mL) throughout.

In the case of `CC[C@H](C)[C@H](NC(=O)[C@H](CCC(=O)O)NC(=O)[C@@H](NC(=O)CNC(=O)[C@H](CO)NC(=O)[C@H](CC(C)C)NC(=O)[C@H](CO)NC(=O)[C@H](CCC(=O)O)NC(=O)[C@H](CCCNC(=N)N)NC(=O)[C@@H](NC(=O)[C@H](C)NC(=O)[C@H](CCCNC(=N)N)NC(=O)CNC(=O)[C@@H](NC(=O)[C@H](CCCNC(=N)N)NC(=O)[C@H](Cc1ccc(O)cc1)NC(=O)[C@@H](NC(=O)[C@H](C)N)[C@@H](C)O)[C@@H](C)O)[C@@H](C)O)C(C)C)C(=O)N[C@@H](CO)C(=O)NCC(=O)N[C@@H](CCCNC(=N)N)C(=O)N[C@@H](CC(C)C)C(=O)N[C@@H](Cc1ccc(O)cc1)C(=O)N[C@@H](CCCNC(=N)N)C(=O)N[C@@H](CC(C)C)C(=O)N[C@@H](CCCNC(=N)N)C(=O)O`, the MBEC result in the assay with Staphylococcus aureus [1] and in the assay on Escherichia coli [4] was “inactive” in each case. Moreover, the minimal bactericidal concentration (MBC) against Escherichia coli [2] was 50 µM (≈ 148 µg/mL); against Staphylococcus aureus [3] it was more than 100 µM.
